Measured values from patent publication US20170165374A1, “COMPOSITIONS AND METHODS FOR TREATING BACTERIAL INFECTIONS” (Insmed, Inc., priority 2015, published 2017).
Counter-ions that a name gives are not always drawn.

Assays:
Type in all cases: cell-based
[1] = system: M. abscessus clinical isolate Stanford A; test: Intracellular CFU in M. abscessus infected THP-1 cells (THP-1 NTM model), Stanford A
Protocol: (§1) THP-1 cells were seeded in PMA and cultured for 48 hours, exposed to M. abscessus (type strain 19977 or clinical isolate Stanford A or NIH26) at multiplicity of infection (MOI) of approx. 2 for 1 hour followed by incubation with […] amikacin sulfate for 23 hours to reduce the extracellular NTM population. Liposomal amikacin formulations were added at 16, 32, 64, and 128 μg/mL of active concentration and incubated for 24 hours at 37° C. At the end of four 24 hour treatment cycles, cells were washed, lysed, serially diluted, plated, and incubated at 37° C. for 4 days to determine final intracellular CFU counts. Formulations were loaded with streptomycin and tested against the M. abscessus strains 19977 and Stanford A. Results are shown in Table 8.

[2] = system: M. abscessus type strain 19977; test: Intracellular CFU in M. abscessus infected THP-1 cells (THP-1 NTM model), strain 19977
Protocol: as §1

[3] = system: M. abscessus clinical isolate NIH26; test: Intracellular CFU in M. abscessus infected THP-1 cells (THP-1 NTM model), NIH26; details: NIH 26, 128 μg/mL amikacin
Protocol: as §1, with “counts.” for “counts. Formulations were loaded with streptomycin and tested against the M. abscessus strains 19977 and Stanford A. Results are shown in Table 8.”

[4] = 128 μg/mL streptomycin sulfate, vs pretreatment
[5] = 128 μg/mL amikacin, vs pretreatment

[H]/N=C(/N)N[C@H]1[C@H](O)[C@@H](O)[C@H](O[C@@H]2O[C@@H](C)[C@](O)(C=O)[C@H]2O[C@@H]2O[C@@H](CO)[C@H](O)[C@@H](O)[C@@H]2NC)[C@@H](N/C(N)=N\[H])[C@@H]1O [free streptomycin sulfate, streptomycin sulfate] was tested, and the “In vitro killing (CFU remaining after 96 h treatment with 128 μg/mL streptomycin sulfate in THP-1 NTM model)” value ([1]; 128 μg/mL streptomycin sulfate) was 424000 CFU, the “In vitro killing (addtl. % CFU killed compared to pretreatment after 96 h treatment with 128 μg/mL streptomycin sulfate in THP-1 NTM model)” value [1, 4] was 27.4% and the “In vitro killing (CFU remaining after 96 h treatment with 128 μg/mL streptomycin sulfate in THP-1 NTM model)” value ([2]; 128 μg/mL streptomycin sulfate) was 408000 CFU. For the same molecule, the “In vitro killing (addtl. % CFU killed compared to pretreatment after 96 h treatment with 128 μg/mL streptomycin sulfate in THP-1 NTM model)” value [2, 4] was 35.8%.

With NCC[C@H](O)C(=O)N[C@@H]1C[C@H](N)[C@@H](O[C@H]2O[C@H](CN)[C@@H](O)[C@H](O)[C@H]2O)[C@H](O)[C@H]1O[C@H]1O[C@H](CO)[C@@H](O)[C@H](N)[C@H]1O [free ami, amikacin] the “In vitro killing (CFU remaining after 96 h treatment with 128 μg/mL ami-in THP-1 NTM model)” value ([1]; 128 μg/mL amikacin) was 135000 CFU, the “In vitro killing (additional % CFU killed compared to pretreatment after 96 h treatment with 128 μg/mL ami in THP-1 NTM model)” value [1, 5] was 75% and the “In vitro killing (CFU remaining after 96 h treatment with 128 μg/mL ami-in THP-1 NTM model)” value [3] was 214667 CFU. The “In vitro killing (additional % CFU killed compared to pretreatment after 96 h treatment with 128 μg/mL ami in THP-1 NTM model)” value ([3]; vs pretreatment) was 37.4%, the “In vitro killing (CFU remaining after 96 h treatment with 128 μg/mL ami-in THP-1 NTM model)” value ([2]; 128 μg/mL amikacin) was 135000 CFU and the “In vitro killing (additional % CFU killed compared to pretreatment after 96 h treatment with 128 μg/mL ami in THP-1 NTM model)” value [2, 5] was 50.1%.
